Reference: paper PMC8343220, “The selectivity of α‐adrenoceptor agonists for the human α1A, α1B, and α1D‐adrenoceptors” (Pharmacology Research & Perspectives, 2021)
Where two headings read alike, the source gives them in different places.

Experiments:
human α1B‐adrenoceptor = molecular target: T1, human α1B‐adrenoceptor (Homo sapiens, UniProt P35368); test: ^3H‐prazosin whole‐cell radioligand binding, CHO‐α1B cells; conditions: Log KD α1B, ^3H‐prazosin whole cell binding, CHO‐α1B cells; given as log KD (negative); mean ± SEM
T1 construct: expressed in transfected cells; host or cells: CHO-K1
T1 sequence (P35368 1-520): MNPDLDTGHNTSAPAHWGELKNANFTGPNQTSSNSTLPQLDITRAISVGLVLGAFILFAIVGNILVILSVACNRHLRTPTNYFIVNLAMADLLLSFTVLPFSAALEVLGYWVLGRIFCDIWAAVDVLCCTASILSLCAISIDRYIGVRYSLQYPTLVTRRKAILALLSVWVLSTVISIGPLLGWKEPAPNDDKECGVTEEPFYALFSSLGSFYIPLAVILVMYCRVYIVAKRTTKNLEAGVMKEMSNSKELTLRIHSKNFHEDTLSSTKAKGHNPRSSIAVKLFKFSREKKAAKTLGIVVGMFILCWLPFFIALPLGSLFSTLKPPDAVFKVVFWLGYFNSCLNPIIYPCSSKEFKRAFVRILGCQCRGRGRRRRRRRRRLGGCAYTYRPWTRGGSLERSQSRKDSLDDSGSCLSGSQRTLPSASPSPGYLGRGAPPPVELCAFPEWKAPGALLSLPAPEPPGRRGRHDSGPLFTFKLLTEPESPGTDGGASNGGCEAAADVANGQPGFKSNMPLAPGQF

[1] = molecular target: T2, human α1D‐adrenoceptor (full length) (Homo sapiens, UniProt P25100); test: ^3H‐prazosin whole‐cell radioligand binding, CHO‐α1D cells
T2 construct: human α1D‐adrenoceptor (full length) were used; expressed in transfected cells; host or cells: CHO-K1
T2 sequence (P25100 1-572): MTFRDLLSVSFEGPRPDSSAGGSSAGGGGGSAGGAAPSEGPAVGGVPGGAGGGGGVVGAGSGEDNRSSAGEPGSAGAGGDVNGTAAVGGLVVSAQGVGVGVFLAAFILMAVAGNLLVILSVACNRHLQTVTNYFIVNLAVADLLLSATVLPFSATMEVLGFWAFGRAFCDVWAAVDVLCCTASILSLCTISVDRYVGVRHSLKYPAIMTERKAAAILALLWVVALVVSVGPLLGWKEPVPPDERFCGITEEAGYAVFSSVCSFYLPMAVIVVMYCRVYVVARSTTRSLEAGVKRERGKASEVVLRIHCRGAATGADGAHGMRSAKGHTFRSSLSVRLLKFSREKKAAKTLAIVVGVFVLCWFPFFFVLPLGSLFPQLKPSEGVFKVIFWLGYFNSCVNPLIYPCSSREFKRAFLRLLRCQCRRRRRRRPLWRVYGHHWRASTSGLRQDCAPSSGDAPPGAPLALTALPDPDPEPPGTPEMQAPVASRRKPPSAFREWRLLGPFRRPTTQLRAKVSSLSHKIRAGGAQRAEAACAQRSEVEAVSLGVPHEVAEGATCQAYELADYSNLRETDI

[2] = molecular target: T2, human α1D‐adrenoceptor (full length); test: Intracellular free calcium mobilization, CHO‐α1D cells; format: cell-based
[3] = molecular target: T2, human α1D‐adrenoceptor (full length); test: ERK1/2‐phosphorylation (Surefire Alphascreen), CHO‐α1D cells; format: cell-based; conditions: CHO‐α1D cells
[4] = test system: parental CHO cell line without any transfected receptors; test: ERK1/2‐phosphorylation, parent CHO cells without transfected receptors; format: cell-based, Chinese hamster; conditions: CHO cells without transfected receptors, mean ± s.e.m.; for ERK1/2-phosphorylation % PDBu: maximal response as % of PDBu (10μM) response
[5] = test system: parental CHO cell line without any transfected receptors; test: Forskolin‐stimulated cAMP accumulation, parent CHO cells without transfected receptors; format: cell-based, Chinese hamster
human α1A‐adrenoceptor [6] = molecular target: T3, human α1A‐adrenoceptor (Homo sapiens, UniProt P35348); test: Intracellular free calcium mobilization, CHO‐α1A cells; format: cell-based
T3 construct: expressed in transfected cells; host or cells: CHO-K1
T3 sequence (P35348 1-466): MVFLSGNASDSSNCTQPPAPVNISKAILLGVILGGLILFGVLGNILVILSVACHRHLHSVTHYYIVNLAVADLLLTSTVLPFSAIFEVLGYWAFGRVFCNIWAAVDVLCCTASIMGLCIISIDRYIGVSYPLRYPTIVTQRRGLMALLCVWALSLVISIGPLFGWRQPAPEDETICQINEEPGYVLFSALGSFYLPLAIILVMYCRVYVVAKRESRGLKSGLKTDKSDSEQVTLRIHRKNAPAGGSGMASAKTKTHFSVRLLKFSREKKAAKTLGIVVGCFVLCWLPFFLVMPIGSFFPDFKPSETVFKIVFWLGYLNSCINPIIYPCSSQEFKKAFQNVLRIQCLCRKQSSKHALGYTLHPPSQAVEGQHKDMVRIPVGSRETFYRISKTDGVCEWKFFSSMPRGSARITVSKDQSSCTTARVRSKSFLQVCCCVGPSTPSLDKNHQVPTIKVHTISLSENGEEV

human α1A‐adrenoceptor [7] = molecular target: T3, human α1A‐adrenoceptor; test: ERK1/2‐phosphorylation (Surefire Alphascreen), CHO‐α1A cells; format: cell-based
human α1A‐adrenoceptor [8] = molecular target: T3, human α1A‐adrenoceptor; test: ^3H‐cAMP accumulation, CHO‐α1A cells; format: cell-based; conditions: CHO‐α1A cells; % of 10 µM forskolin response
human α1A‐adrenoceptor [9] = molecular target: T3, human α1A‐adrenoceptor; test: ^3H‐cAMP accumulation in the presence of 10 μM forskolin, CHO‐α1A cells; format: cell-based; conditions: CHO‐α1A cells; fold increase of the forskolin response
[10] = CHO cells without transfected receptors, in presence of forskolin

## c1ccc2c(c1)CCCC2C1=NCCN1 (centres unmarked) [Tetrahydrozoline]
Human α1B‐adrenoceptor
  Kd: 6.03 µM
[1]; 3H‐prazosin binding Log KD, CHO‐α1D cells, whole‐cell binding (from Table 1), log values given negative
  Kd: 4.57 µM
[1]; Log KD α1D, ^3H‐prazosin whole cell binding, CHO‐α1D cells, given as log KD (negative), mean ± SEM, 'early plateau' = specific binding not fully inhibited
  Kd: 4.57 µM
[2]; CHO‐α1D cells, response at 100 µM ligand (no EC50 given)
  Intracellular calcium release % Ionomycin at 100 µM: 2.3 ± 1.1%
[3]; log values given negative
  ERK1/2‐phosphorylation Log EC50: No response
[3]; maximal response as % of PDBu
  ERK1/2‐phosphorylation % PDBu: No response
[4]
  ERK1/2-phosphorylation % PDBu: No response
  ERK1/2-phosphorylation Log EC50: No response
[5]; [10]
  cAMP accumulation (in presence of forskolin) Log EC50: No response

## Bromocryptine
Human α1A‐adrenoceptor [6]
  Intracellular calcium release % ionomycin: 20.0 ± 3.0%
  Log efficacy ratio KD /EC50: −1.42
Human α1A‐adrenoceptor [7]
  ERK1/2‐phosphorylation % PDBu: 61.2 ± 10.3%
Human α1A‐adrenoceptor [8]
  cAMP accumulation % forskolin: No response
Human α1A‐adrenoceptor [9]
  cAMP accumulation (in presence of forskolin) Fold increase: No response

## COc1ccc(CC(C)NCC(O)c2ccc(O)c(NC=O)c2)cc1 (centres unmarked) [Formoterol]
[1]; 3H‐prazosin binding Log KD
  Kd: 7.08 µM
[1]; Log KD α1D, ^3H‐prazosin whole cell binding
  Kd: 7.08 µM
[2]
  Intracellular calcium release Log EC50: No response
[5]
  cAMP accumulation (in presence of forskolin) Log EC50: No response

## CNC[C@H](O)c1cccc(O)c1 [R-phenylephrine]
[4]
  ERK1/2-phosphorylation % PDBu: No response
[5]; [10]
  cAMP accumulation (in presence of forskolin) Log EC50: No response
